Test results from article PMC4865845, “A human genome-wide loss-of-function screen identifies effective chikungunya antiviral drugs” (Nature Communications, 2016).
pIC50: −log10 of the molar value. Where two headings read alike, the source gives them in different places.

Experiments:
[1] = target: CLK1 (Homo sapiens, UniProt P49759); test: CLK1 inhibition by capillary electrophoresis in a microfluidic chip system (LabChip3000); format: biochemical
[2] = test system: CHIKV; test: microbe, parasite or virus in culture; format: cell-based, chikungunya virus; settings: HEK-293 cells pretreated with dilutions of each drug, CHIKV-GFP, 18 h p.i.
[3] = test system: CHIKV C21; test: Single-cycle CHIKV C21 infection, drug 2 h before or 2 h after infection (flow cytometry of capsid; supernatant infectivity on Vero cells); format: cell-based, chikungunya virus
[4] = test system: HEK-293 cells; test: Cell viability, Cell Proliferation Reagent WST-1; format: cell-based, human; settings: read-out: WST-1 IC50
Procedure: To exclude the possible cytotoxic effects, all compounds were additionally tested using the ‘Cell Proliferation Reagent WST-1' (Roche Diagnostics). HEK-293 cells were treated with the same concentrations of the various substances and 18 h later WST-1 was added. Readout was conducted using the EnVision Multilabel Reader (PerkinElmer).

[5] = test system: CHIKV C21; test: Intradermal CHIKV infection model of neonatal mice; settings: neonatal mice
[6] = test system: CHIKV C21; format: in vivo, C57BL/6 mice; settings: adult mice pretreated at least 3 days (pimozide 20 mg kg−1 per os; TOFA 25 mg kg−1 i.p.), 18 h p.i.
[7] = test system: HeLa cells; test: Cell viability, CellTiter-Glo kit; settings: end of the 1 h infection + 7 h treatment experiment
[8] = test system: herpes simplex type 1 strain KOS (HSV-1); format: cell-based, herpes simplex virus 1; settings: HEK-293 cells pretreated 2 h, Fig. 4
[9] = test system: CHIKV C21; test: Quantitative RT-PCR of cell- and supernatant-associated vRNA; format: cell-based, chikungunya virus; settings: HeLa; for vRNA synthesis (cell-associated vRNA) / viral release in the supernatants (supernatant-associated vRNA): CHIKV C21 MOI 50 for 1 h, then drug 7 h: cerulenin 50 μM, TOFA 25 μM, pimozide 10 μM, W7 20 μM, tivozanib 5 μM; for vRNA replication, delayed treatment / viral release, delayed treatment: CHIKV-infected, drugs from 6 to 8 h p.i.
[10] = test system: CHIKV replicon; test: CHIKV replicon dual-luciferase assay (genomic and subgenomic vRNA expression); format: cell-based, chikungunya virus; settings: HeLa cells, inhibitor from 1 h p.i., read 8 h p.i.
[11] = test system: HeLa cells; test: Real-time cell toxicity assay (xCELLigence)
[12] = HEK-293 cell viability, 18 h, * = treatment induced <50% cell death

Sequence of CLK1 (P49759 whole entry): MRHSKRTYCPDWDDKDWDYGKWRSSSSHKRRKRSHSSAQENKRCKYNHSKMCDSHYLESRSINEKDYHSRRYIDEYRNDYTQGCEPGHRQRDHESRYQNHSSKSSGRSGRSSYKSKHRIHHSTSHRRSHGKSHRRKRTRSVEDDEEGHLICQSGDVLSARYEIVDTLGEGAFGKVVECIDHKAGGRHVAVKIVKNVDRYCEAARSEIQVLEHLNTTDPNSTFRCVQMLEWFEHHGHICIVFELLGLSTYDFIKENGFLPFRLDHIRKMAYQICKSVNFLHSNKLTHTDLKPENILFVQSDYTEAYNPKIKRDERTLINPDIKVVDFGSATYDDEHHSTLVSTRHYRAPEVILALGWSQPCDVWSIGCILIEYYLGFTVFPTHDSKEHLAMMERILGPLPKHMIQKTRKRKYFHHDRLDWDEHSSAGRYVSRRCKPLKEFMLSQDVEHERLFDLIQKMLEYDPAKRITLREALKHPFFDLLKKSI

Row | Compound | pIC50 [2] | pIC50 [4, 12] | impact on mouse growth [5] | pIC50 ([2]; Chikungunya virus, HEK293) | CHIKV titres in the footpad (replication) [6] | cell toxicity [7] | pIC50 ([4]; Homo sapiens, HEK293, 18 h) | vRNA synthesis (cell-associated vRNA) [9] | viral release in the supernatants (supernatant-associated vRNA) [9] | vRNA replication, delayed treatment [9] | viral release, delayed treatment [9] | other results
1 | C#CCn1c2c(Br)nccc2c2ccc(Cl)c(Cl)c21 [AnnH80, 1-bromo-7,8-dichloro-9-(prop-2-yn-1-yl)-9H-pyrido[3,4-b]indole] | – | – | – | – | – | – | – | – | – | – | – | pIC50 [1]: 6.06; melting point: 190 to 193 °C
2 | CO/C1=C\C(C)=C\[C@@H](C)[C@@H](O)[C@@H](C)C/C(C)=C/C=C/[C@H](OC)[C@@H]([C@@H](C)[C@@H](O)[C@H](C)[C@@]2(O)C[C@@H](O)[C@H](C)[C@@H](C(C)C)O2)OC1=O [Bafilomycin] | 9.48 | 8.52 | – | – | – | – | – | – | – | – | – | stage of the viral life cycle affected ([3]; single-cycle CHIKV infection, treatment before or after viral entry): specifically blocked CHIKV entry
3 | O=c1[nH]c2ccccc2n1C1CCN(CCCC(c2ccc(F)cc2)c2ccc(F)cc2)CC1 [Pimozide] | – | – | detectable impact on mouse growth | 6.55 | significantly reduced replication | no detectable cell toxicity | 4.72 | significantly reduced vRNA synthesis | strongly inhibited viral release | only a minor impact on vRNA replication | major defect in viral release | antiviral effect on HSV-1 [8]: antiviral effect
4 | CCCCCCCCCCCCCCOc1ccc(C(=O)O)o1 [TOFA, 5-tetradecyloxy-2-furoic acid] | – | – | detectable impact on mouse growth | 6.82 | significantly reduced replication | no detectable cell toxicity | < 4.22 | significantly reduced vRNA synthesis | strongly inhibited viral release | only a minor impact on vRNA replication | major defect in viral release | genomic and subgenomic vRNA synthesis [10]: significant and dose-dependent reduction; effect on cell viability [11]: no deleterious effect on cell viability
5 | KH-CB19 | 5.47 | 4.96 | – | – | – | – | – | – | – | – | – | inhibition of CHIKV infection at early times p.i. ([3]; Supplementary Fig. 5a): incomplete inhibition
